Literature values in publication PMC9851200, “Multiparameter phenotypic screening for endogenous TFEB and TFE3 translocation identifies novel chemical series modulating lysosome function” (Autophagy, 2022).

Assays:
Parameters in all cases: method as in original PKIS2 published data
[1] = target: kinases (KINOMEscan panel) (Homo sapiens, UniProt P23458); conditions: JAK1(JH1domain-catalytic); Published KINOMEscan; ref original PKIS2 published data; cited from earlier work
[2] = target: kinases (KINOMEscan panel) (Homo sapiens, UniProt P14616); conditions: INSRR; Published KINOMEscan; ref original PKIS2 published data; cited from earlier work
kinases (KINOMEscan panel) (Homo sapiens, UniProt P14616), sequence (P14616 27-1297): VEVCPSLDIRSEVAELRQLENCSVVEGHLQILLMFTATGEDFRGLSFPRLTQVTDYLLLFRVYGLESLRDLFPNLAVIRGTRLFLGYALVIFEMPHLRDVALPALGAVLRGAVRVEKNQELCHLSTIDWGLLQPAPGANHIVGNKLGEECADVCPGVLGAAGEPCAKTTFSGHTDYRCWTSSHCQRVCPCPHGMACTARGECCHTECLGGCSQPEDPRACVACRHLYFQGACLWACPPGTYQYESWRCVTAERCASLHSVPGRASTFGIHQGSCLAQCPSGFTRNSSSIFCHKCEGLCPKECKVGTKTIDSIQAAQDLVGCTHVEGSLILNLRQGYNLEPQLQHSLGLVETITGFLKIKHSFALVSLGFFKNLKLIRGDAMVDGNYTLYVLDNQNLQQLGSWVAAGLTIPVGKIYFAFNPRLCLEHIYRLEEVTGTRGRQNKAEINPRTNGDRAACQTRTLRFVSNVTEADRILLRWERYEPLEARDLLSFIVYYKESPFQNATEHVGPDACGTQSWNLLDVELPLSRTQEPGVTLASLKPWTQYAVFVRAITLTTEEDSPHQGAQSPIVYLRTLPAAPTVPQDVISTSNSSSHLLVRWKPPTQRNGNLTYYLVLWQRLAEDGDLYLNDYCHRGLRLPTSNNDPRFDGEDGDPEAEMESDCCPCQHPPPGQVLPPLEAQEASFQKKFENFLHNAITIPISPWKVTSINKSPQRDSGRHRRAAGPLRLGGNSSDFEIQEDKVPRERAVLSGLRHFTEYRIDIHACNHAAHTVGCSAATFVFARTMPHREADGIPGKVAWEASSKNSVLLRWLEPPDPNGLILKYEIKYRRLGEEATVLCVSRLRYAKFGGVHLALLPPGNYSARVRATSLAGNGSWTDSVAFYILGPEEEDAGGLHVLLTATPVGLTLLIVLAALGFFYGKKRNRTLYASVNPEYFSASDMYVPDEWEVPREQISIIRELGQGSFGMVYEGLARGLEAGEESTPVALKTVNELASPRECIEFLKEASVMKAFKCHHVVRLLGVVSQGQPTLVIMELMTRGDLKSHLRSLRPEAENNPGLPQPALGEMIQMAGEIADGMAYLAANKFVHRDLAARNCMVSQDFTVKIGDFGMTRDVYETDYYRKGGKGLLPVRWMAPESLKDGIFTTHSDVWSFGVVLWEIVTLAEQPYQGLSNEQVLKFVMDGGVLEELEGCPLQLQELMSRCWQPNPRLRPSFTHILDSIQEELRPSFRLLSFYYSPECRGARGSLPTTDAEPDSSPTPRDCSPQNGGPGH

[3] = target: kinases (KINOMEscan panel) (Homo sapiens, UniProt P29376); conditions: LTK; Published KINOMEscan; ref original PKIS2 published data; cited from earlier work
[4] = target: T1, kinases (KINOMEscan panel) (Homo sapiens, UniProt P41743); conditions: PRKCI; Published KINOMEscan; ref original PKIS2 published data; cited from earlier work
T1 sequence (P41743 1-596): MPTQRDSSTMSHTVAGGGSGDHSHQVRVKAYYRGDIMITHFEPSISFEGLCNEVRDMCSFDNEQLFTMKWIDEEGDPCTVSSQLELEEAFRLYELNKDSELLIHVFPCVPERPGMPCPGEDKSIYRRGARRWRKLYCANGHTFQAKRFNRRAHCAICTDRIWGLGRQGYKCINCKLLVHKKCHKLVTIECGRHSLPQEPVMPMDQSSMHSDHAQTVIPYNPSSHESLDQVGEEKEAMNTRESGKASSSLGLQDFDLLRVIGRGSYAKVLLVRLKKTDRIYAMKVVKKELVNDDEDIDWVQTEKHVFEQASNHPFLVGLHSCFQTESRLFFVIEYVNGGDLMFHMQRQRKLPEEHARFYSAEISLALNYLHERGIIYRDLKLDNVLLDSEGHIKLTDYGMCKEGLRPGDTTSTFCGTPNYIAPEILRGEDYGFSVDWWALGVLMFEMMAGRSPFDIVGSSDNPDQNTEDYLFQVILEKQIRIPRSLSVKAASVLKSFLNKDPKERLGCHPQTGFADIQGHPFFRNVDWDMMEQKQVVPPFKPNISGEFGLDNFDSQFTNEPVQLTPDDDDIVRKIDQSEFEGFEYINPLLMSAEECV

[5] = target: kinases (KINOMEscan panel) (Homo sapiens, UniProt P08922); conditions: kinase ROS1; Published KINOMEscan; ref original PKIS2 published data; cited from earlier work
kinases (KINOMEscan panel) (Homo sapiens, UniProt P08922), sequence (P08922 28-2347): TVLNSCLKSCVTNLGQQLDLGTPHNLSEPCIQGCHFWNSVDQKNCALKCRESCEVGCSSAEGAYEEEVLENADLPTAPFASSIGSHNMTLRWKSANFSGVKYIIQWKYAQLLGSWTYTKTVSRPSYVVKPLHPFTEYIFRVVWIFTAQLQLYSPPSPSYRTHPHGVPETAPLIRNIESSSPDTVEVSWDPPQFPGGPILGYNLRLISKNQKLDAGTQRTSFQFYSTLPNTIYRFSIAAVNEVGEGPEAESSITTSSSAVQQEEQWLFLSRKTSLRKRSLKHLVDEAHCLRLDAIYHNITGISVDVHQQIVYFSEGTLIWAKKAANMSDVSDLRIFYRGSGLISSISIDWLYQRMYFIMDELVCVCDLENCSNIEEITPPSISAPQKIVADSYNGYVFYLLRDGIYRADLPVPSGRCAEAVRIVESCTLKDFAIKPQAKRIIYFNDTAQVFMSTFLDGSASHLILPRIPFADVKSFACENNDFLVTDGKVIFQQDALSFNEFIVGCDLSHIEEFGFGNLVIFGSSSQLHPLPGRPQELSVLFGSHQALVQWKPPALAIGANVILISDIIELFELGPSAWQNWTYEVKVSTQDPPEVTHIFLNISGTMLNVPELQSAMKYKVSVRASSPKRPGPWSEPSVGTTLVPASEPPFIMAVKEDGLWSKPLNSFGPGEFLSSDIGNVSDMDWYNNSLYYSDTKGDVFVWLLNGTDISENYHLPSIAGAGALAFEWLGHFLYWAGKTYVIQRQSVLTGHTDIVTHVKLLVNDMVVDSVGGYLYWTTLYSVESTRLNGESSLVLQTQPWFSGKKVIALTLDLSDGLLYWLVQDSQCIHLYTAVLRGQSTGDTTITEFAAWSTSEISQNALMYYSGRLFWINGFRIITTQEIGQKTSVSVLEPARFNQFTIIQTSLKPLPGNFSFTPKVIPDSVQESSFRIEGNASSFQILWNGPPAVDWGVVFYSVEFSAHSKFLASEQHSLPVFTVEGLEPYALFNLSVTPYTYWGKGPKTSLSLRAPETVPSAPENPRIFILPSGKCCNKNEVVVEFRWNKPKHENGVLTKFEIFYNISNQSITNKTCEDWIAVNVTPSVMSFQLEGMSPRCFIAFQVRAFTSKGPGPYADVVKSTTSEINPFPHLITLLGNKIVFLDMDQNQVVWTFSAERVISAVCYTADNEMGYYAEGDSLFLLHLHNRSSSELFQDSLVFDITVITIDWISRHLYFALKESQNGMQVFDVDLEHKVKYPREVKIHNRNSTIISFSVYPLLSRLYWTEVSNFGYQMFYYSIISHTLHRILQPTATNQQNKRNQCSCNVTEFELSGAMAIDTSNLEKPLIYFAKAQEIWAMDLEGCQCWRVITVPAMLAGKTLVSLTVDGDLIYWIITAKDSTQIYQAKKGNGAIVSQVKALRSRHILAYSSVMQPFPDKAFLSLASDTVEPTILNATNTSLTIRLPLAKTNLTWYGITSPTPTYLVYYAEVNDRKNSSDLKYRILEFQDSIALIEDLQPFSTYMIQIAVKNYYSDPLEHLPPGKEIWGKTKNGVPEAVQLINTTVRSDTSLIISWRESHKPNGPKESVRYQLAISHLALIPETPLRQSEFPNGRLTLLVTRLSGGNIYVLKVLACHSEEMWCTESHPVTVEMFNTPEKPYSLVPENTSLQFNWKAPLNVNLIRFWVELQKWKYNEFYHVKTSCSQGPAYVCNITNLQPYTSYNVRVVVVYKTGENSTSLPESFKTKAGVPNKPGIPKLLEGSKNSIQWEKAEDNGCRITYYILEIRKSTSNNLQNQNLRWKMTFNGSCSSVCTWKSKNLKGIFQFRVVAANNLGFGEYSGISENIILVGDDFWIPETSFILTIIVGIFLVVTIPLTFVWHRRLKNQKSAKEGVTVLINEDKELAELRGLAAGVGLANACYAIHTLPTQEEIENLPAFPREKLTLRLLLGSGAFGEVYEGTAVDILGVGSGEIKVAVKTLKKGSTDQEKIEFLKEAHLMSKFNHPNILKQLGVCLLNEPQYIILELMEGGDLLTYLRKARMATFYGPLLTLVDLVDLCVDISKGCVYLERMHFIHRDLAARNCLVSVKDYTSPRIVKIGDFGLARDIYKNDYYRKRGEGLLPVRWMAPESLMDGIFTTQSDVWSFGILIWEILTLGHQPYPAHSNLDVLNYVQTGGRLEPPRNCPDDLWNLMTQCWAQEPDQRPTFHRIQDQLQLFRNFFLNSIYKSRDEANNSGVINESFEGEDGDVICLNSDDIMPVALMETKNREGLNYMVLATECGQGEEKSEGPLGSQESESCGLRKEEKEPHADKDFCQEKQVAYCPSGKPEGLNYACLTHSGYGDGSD

[6] = target: T2, kinases (KINOMEscan panel) (Homo sapiens, UniProt O00141); conditions: kinase SGK1; Published KINOMEscan; ref original PKIS2 published data; cited from earlier work
T2 sequence (O00141 1-431): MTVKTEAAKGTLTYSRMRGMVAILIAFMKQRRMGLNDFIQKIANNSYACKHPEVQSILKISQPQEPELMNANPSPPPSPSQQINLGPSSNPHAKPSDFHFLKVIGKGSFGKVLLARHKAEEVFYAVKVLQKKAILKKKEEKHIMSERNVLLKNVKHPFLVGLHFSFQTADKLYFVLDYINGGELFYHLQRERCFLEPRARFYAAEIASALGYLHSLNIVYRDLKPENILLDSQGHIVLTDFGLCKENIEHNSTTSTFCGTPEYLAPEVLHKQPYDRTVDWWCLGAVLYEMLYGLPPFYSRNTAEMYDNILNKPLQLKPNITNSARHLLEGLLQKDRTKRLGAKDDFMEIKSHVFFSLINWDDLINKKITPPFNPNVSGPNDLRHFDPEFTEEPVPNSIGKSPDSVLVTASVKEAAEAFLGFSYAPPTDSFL

[7] = target: T3, kinases (KINOMEscan panel) (Homo sapiens, UniProt Q6ZN16); conditions: Published KINOMEscan; ref original PKIS2 published data; cited from earlier work
T3 sequence (Q6ZN16 1-1313): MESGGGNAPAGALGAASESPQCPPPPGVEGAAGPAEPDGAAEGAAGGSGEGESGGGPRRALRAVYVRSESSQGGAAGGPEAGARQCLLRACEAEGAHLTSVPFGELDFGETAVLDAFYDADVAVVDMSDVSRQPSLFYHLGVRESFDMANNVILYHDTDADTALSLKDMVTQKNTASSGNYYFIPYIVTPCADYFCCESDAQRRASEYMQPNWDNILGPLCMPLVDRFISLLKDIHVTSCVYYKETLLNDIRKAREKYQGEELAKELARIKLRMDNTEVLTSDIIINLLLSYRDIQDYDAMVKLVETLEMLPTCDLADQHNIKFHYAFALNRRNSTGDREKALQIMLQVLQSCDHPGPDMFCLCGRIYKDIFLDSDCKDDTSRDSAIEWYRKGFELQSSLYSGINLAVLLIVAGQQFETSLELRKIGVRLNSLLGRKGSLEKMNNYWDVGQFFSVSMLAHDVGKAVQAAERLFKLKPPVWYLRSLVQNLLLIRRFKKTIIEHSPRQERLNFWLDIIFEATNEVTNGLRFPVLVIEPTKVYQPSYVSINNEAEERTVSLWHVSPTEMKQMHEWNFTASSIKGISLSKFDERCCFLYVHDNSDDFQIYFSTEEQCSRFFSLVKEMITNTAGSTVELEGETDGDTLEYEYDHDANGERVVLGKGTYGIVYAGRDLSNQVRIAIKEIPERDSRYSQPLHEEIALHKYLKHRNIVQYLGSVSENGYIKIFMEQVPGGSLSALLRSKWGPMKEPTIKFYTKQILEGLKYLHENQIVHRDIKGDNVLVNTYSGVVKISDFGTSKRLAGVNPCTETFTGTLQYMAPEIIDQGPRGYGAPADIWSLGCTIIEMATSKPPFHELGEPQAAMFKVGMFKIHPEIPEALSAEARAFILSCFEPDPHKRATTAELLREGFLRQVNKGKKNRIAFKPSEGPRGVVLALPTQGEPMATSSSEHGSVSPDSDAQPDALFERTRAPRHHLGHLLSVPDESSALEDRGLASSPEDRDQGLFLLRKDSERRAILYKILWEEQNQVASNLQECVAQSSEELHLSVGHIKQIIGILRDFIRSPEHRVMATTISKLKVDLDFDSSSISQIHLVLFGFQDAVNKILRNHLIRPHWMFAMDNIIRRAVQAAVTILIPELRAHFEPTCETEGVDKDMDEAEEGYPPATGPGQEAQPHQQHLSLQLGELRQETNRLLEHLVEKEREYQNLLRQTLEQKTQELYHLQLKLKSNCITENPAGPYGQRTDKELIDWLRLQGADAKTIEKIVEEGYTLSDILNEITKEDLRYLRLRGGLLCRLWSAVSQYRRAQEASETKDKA

kinases (KINOMEscan panel) (Homo sapiens, UniProt P23458), sequence (P23458 whole entry): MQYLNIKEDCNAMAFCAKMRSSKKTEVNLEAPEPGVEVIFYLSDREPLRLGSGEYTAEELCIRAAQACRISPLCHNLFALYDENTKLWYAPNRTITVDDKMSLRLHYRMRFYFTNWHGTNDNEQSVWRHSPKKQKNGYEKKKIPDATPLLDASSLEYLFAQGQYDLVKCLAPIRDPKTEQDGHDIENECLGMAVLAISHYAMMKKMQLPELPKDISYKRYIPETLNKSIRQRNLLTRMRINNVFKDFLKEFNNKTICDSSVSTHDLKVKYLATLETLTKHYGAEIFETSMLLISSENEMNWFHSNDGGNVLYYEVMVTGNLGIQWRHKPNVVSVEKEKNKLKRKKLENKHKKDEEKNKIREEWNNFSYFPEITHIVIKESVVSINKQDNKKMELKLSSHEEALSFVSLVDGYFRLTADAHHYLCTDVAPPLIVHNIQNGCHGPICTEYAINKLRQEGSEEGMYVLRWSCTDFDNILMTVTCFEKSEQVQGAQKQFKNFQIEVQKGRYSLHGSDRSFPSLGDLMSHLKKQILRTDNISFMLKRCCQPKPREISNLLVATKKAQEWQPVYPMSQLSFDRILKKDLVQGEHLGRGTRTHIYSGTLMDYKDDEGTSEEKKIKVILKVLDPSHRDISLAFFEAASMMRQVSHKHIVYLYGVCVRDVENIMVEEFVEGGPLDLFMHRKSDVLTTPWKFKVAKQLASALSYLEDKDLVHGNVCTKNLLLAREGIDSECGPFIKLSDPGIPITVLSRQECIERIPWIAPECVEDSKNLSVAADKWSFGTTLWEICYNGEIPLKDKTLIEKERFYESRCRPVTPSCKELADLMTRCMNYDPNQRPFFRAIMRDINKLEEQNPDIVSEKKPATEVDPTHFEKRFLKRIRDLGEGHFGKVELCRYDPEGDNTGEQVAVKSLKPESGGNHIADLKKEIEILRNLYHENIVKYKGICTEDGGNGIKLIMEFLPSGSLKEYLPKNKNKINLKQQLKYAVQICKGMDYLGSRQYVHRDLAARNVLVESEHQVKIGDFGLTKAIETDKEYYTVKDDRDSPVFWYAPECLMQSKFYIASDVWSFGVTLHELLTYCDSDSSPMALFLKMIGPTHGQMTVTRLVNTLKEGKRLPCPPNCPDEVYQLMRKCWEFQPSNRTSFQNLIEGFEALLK

Compound: Cc1cccc(-c2nc(Nc3ccncc3)c3ccccc3n2)n1 [NK215]
- KINOMEscan JAK1(JH1domain-catalytic) [1]: 0
- KINOMEscan INSRR [2]: 0
- KINOMEscan LTK [3]: 21
- KINOMEscan PRKCI [4]: 32
- KINOMEscan ROS1 [5]: 0
- KINOMEscan SGK1 [6]: 0
- KINOMEscan MAP3K15 [7]: 0
